These results are taken from patent US9693954B2, “Co-delivery of stimulatory and inhibitory factors to create temporally stable and spatially restricted zones” (President and Fellows of Harvard College, priority 2010, dated 2017).

Experiment [1] has as its system dermal human vascular endothelial cells (HMVECs). Kind of experiment: in vitro sprouting assay (cell-seeded dextran beads in fibrin gel). It is filed as cell-based. The note with it: HMVEC-coated beads in fibrin gel, 4 days, 10 ng/mL HGF in all media. As for the experimental part: Briefly, dermal human vascular endothelial cells (HMVECs) were purchased from Lonza (CC-2543) and cultured to confluence at 37° C. and 5% CO2 in microvascular endothelial cell growth medium-2 (EGM-2MV) (Lonza) containing all supplements. Angiogenic activity of endothelial cells was assessed using a modification of a widely used in vitro sprouting assay (Nehls, V., and Drenckhahn, D. 1995 Microvasc Res 50, 311-322). Briefly, dextran beads microcarriers (Cytodex 3) with a dry weight of 50 mg were swollen in PBS and autoclaved. The microcarriers were washed in EGM-2MV medium and seeded with 3×10^6 HMVECs in a spinner flask. The microcarriers were stirred for 2 minutes out of 30 minutes for […] at 37° C. incubation. After 4 hours, the beads and cells mixture were continuously stirred and incubated for an additional 20 hours. The cell-coated beads were then seeded in fibrin gel in a 24-well-plate. The composition of the fibrin gel in each well was 0.682 mg fibrinogen (Sigma, T3879), 11.4 μg aprotinin (Sigma, A4529), 0.455 U thrombin (Sigma, T6884) in 393 μL of phosphate buffered saline (PBS) and 57 μL of EGM2-MV. Gels were incubated at 37° C. for 30 minutes and media of experimental conditions were placed on top of the gel. […] Media were changed every 24 hours and the cells were allowed to sprout from beads into surrounding gel over 4 days. […]

The next experiment has as its system angiogenesis. To be noted: from previous studies; cited from earlier work.
In experiment [2] the test system is TGF-β reporter line (MLEC p3TP Luc). Put plainly: TGF-β reporter cell line luciferase activity. Type of experiment: cell-based. The protocol: (§1) FIG. 22E is a schematic showing an experimental scheme to show the precise kinetics of growth factor exposure on luciferase activity in the reporter lines. Following seeding and serum starvation (reduces background), a specific inhibitor is added to create a uniform inhibitory field. Subsequently, for given amounts of time, the inhibitor is washed off, the growth factor (either TGF-β1 or BMP4) is added for specified time, and washed off followed by re-addition of the inhibitor. At 24 hours, cells are lysed and assayed for luciferase activity.
(§2) The reporter cell lines were seeded in these 5 layered systems and imaged for luciferase activity after 24 hours to confirm development of spatially distinct morphogens fields.

Experiment [3] deals with phospho-Smad2 in D1 (MSCs). Put plainly: immunoblot / immunostaining for phospho-Smad2 (2/3) in D1 MSCs. It is filed as cell-based. The protocol: (§3) Experiments were carried out with the following morphogens: TGF-β1 to drive dentin differentiation and BMP4 to drive bone differentiation. The scaffold devices were fabricated, loaded with morphogens (in this case, differentiation factors), and then seeded with stem cells, e.g., mesendymal stem cells, embryonic stem cells or induced pluripotent stem cells (iPS)). The loaded, seeded devices were cultured for 21 days with no additional factors present in the media. All factors came from within the scaffold from the point of seeding. Immunoblots were carried out to assess activation of the downstream Smad signaling pathways following treatment of D1s with these morphogens.

For experiment [4], the system named is BMP4 reporter (C2C12 BRE Luc). Kind of experiment: BMP4 reporter cell line luciferase activity. Type of experiment: cell-based. The protocol: as §1, §2
The subject of experiment [5] is phospho-Smad1/5/8 in D1 (MSCs). Put plainly: immunoblot for phospho-Smad1/5/8 in D1 MSCs. Type of experiment: cell-based. The protocol: as §3
For orientation: A western blot detects proteins with antibodies after separation by electrophoresis.

The mark [6] stands for this setting: inhibitor wash-off / re-addition scheme, lysis at 24 hours.

For VEGF, the “angiogenic sprouting (number of sprouts per bead)” value in experiment [1] is recorded as “induced angiogenic sprouting”. For the same molecule, the “minimum effective VEGF concentration in vivo to induce angiogenesis” value with angiogenesis is reported as about 5 ng/mL.

With “TGF-β1: transforming growth factor-β1, morphogen used to drive dentin differentiation”, the “luciferase activity with varying TGF-β1 concentration” value in experiment [2] was “linear dose dependence”. Besides, in experiment [2] (setting [6]), the “exposure time sufficient for maximal induction of luciferase activity” value lay within 5 to 15 min. Also, in experiment [3], the “phospho-Smad2 activation (immunoblot)” value is “dose-dependent activation”. Further, the phospho-Smad2/3 immunostaining entry in experiment [3] (following stimulation) is given as “nuclear localization of activated Smads”.

B1: BMP4: bone morphogenetic protein 4, morphogen used to drive bone differentiation (protein, UniProt P12644 293-408, looked up)
Bone morphogenetic protein 4: SPKHHSQRARKKNKNCRRHSLYVDFSDVGWNDWIVAPPGYQAFYCHGDCPFPLADHLNSTNHAIVQTLVNSVNSSIPKACCVPTELSAISMLYLDEYDKVVLKNYQEMVVEGCGCR
As to B1, the “luciferase activity with varying BMP4 concentration” value in experiment [4] is “linear dose dependence”. For the same molecule, the “exposure time sufficient for maximal induction of luciferase activity” value in experiment [4] (setting [6]) was in the range of 5 to 15 min. In addition, the “phospho-Smad1/5/8 activation (immunoblot)” value in experiment [5] is given as “dose-dependent activation”.
